Experimental findings from US20060217418A1, “Substituted alkyl amido piperidines” (priority 2001, published 2006) are described below.

For the assay, the target named is T1, rat MCH1 receptor (Rattus norvegicus, UniProt P97639).
T1 construct: operatively linked to DNA encoding the rat MCH1 receptor so as to permit expression thereof; expressed in transfected cells; host or cells: Human embryonic kidney Peak rapid 293 (Peakr293) cells, transient calcium phosphate transfection, membranes
T1 sequence (P97639 whole entry): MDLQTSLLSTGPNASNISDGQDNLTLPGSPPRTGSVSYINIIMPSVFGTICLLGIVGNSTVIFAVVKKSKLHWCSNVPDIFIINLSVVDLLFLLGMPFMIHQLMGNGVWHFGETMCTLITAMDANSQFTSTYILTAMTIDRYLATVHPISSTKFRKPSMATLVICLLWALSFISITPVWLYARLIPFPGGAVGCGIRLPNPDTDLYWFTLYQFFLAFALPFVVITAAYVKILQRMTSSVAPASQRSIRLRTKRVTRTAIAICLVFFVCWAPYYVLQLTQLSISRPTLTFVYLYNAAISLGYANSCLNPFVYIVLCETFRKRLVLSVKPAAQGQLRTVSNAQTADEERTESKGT
The assay is described as follows: Radioligand binding assay at cloned rat MCH1 receptor ([3H]Compound A). Conditions: cloned rat MCH1, Peakr293 cell membranes, 0.08 nM [3H]Compound A, 25° C., 90 minutes; read-out: Ki(MCH-1).
Usually Ki stands for the equilibrium dissociation constant of an inhibitor or competing ligand from its target. Regarding `CCCC(=O)Nc1cccc(C2CCN(CCCNC(=O)C(c3ccc(F)cc3)c3ccc(F)cc3)CC2)c1` [Example 27, N-{3-[1-(3-{[2,2-BIS(4-FLUOROPHENYL)ACETYL]AMINO}PROPYL)-4-PIPERIDINYL] PHENYL}BUTANAMIDE], the Ki came out at 1.1 nM.

For `CC(=O)Nc1cccc(C2CCN(CCCNC(=O)C(c3ccc(F)cc3)c3ccc(F)cc3)CC2)c1` [Example 28, N-(3-{4-[3-(acetylamino)phenyl]-1-piperidinyl}propyl)-2,2-bis(4-fluorophenyl)acetamide], the Ki was 0.4 nM.

For `CC(C)C(=O)Nc1cccc(C2CCN(CCCNC(=O)C(C)(c3ccccc3)c3ccccc3)CC2)c1` [Example 30], the Ki stood at 5.3 nM.

As to `CC(C)C(=O)Nc1cccc(C2CCN(CCCNC(=O)C3(c4ccc(Cl)cc4)CCCC3)CC2)c1` [Example 31, 1-(4-CHLOROPHENYL)-N-(3-{4-[3-(ISOBUTYRYLAMINO)PHENYL]-1-PIPERIDINYL} PROPYL)CYCLOPENTANECARBOXAMIDE], the Ki stood at 8.2 nM.

As for `Cc1c(NC(=O)C(C)C)cccc1C1CCN(CCCNC(=O)C(c2ccccc2)c2ccccc2)CC1` [Example 33], the Ki is 496 nM.

For the compound `Cc1ccc(C(C(=O)NCCCN2CCC(c3cccc(NC(=O)C(C)C)c3)CC2)c2ccc(C)cc2)cc1` [Example 34, N-{3-[1-(3-{[BIS(4-METHYLPHENYL)ACETYL]AMINO}PROPYL)-4-PIPERIDINYL] PHENYL}-2-METHYLPROPANAMIDE], the Ki was determined as 2.3 nM.

As for `CC(C)C(=O)Nc1cccc(C2CCN(CCCNC(=O)C3(c4ccc(F)cc4)CCCC3)CC2)c1` [Example 36, 1-(4-FLUOROPHENYL)-N-(3-{4-[3-(ISOBUTYRYLAMINO)PHENYL]-1-PIPERIDINYL} PROPYL)CYCLOPENTANECARBOXAMIDE], the Ki was found to be 11 nM.

As to `CC(C)C(=O)Nc1cccc(C2CCN(CCCNC(=O)C(C)c3ccc(Cl)cc3)CC2)c1` (stereo not drawn) [Example 37, 2-(4-CHLOROPHENYL)-N-(3-{4-[3-(ISOBUTYRYLAMINO)PHENYL]-1-PIPERIDINYL} PROPYL)PROPANAMIDE], the Ki was 19.5 nM.

For the compound `CC(C)C(=O)Nc1cccc(C2CCN(CCCNC(=O)C3(c4ccc(F)cc4Cl)CCCC3)CC2)c1` [Example 38], the Ki turned out to be 28.4 nM.

On to `COC(C(=O)NCCCN1CCC(c2cccc(NC(=O)C(C)C)c2)CC1)c1ccc(Cl)c(Cl)c1` (stereo not drawn) [Example 39], for which the Ki was 32.2 nM.

With `CC(C)C(=O)Nc1cccc(C2CCN(CCCNC(=O)C3(c4ccc(F)cc4)CCCCC3)CC2)c1` [Example 40, 1-(4-FLUOROPHENYL)-N-(3-{4-[3-(ISOBUTYRYLAMINO)PHENYL]-1-PIPERIDINYL} PROPYL)CYCLOHEXANECARBOXAMIDE], the Ki turned out to be 7.9 nM.

Regarding `CC(C)C(=O)Nc1cccc(C2CCN(CCCNC(=O)C3(c4ccc(Cl)cc4Cl)CC3)CC2)c1` [Example 41, 1-(2,4-DICHLOROPHENYL-N-(3-{4-[3-(ISOBUTYRYLAMINO)PHENYL]-1-PIPERIDINYL} PROPYL)CYCLOPROPANECARBOXAMIDE], the Ki amounted to 39.9 nM.

For `CC(C)C(=O)Nc1cccc(C2CCN(CCCNC(=O)C(C)c3ccc(F)cc3)CC2)c1` (stereo not drawn) [Example 42, 2-(4-FLUOROPHENYL)-N-(3-{4-[3-(ISOBUTYRYLAMINO)PHENYL]-1-PIPERIDINYL} PROPYL)PROPANAMIDE], the Ki is 34.3 nM.

Regarding `CC(C)C(=O)Nc1cccc(C2CCN(CCCNC(=O)C3(c4ccc(Cl)cc4)CCC3)CC2)c1` [Example 43, 1-(4-CHLOROPHENYL)-N-(3-{4-[3-(ISOBUTYRYLAMINO)PHENYL]-1-PIPERIDINYL} PROPYL)CYCLOBUTANECARBOXAMIDE], the Ki came to 13.7 nM.

As for `CC(C)C(=O)Nc1cccc(C2CCN(CCCNC(=O)C3(c4ccc(Cl)cc4)CC3)CC2)c1` [Example 44, 1-(4-CHLOROPHENYL)-N-(3-{4-[3-(ISOBUTYRYLAMINO)PHENYL]-1-PIPERIDINYL} PROPYL)CYCLOPROPANECARBOXAMIDE], the Ki was 19.7 nM.

For the compound `CC(C)C(=O)Nc1cccc(C2CCN(CCCNC(=O)C3(c4ccc(Cl)cc4)CCCCC3)CC2)c1` [Example 45, 1-(4-CHLOROPHENYL)-N-(3-{4-[3-(ISOBUTYRYLAMINO)PHENYL]-1-PIPERIDINYL} PROPYL)CYCLOHEXANECARBOXAMIDE], the Ki turned out to be 4 nM.

As to `CC(C)C(=O)Nc1cc(C2CCN(CCCNC(=O)C(C)c3ccc(F)cc3)CC2)ccc1F` (stereo not drawn) [Example 46], the Ki is 44.5 nM.

Regarding `CC(C)C(=O)Nc1cc(C2CCN(CCCNC(=O)C3(c4ccc(Cl)cc4)CC3)CC2)ccc1F` [Example 47], the Ki was determined as 25.6 nM.

As to `CC(C)C(=O)Nc1cc(C2CCN(CCCNC(=O)C(c3ccc(F)cc3)c3ccc(F)cc3)CC2)ccc1F` [Example 48, N-{5-[1-(3-{[BIS(4-FLUOROPHENYL)ACETYL]AMINO}PROPYL)-4-PIPERIDINYL]-2-FLUORO PHENYL}2-METHYLPROPANAMIDE], the Ki was 2.8 nM.

In the case of `CC(C)C(=O)Nc1cc(C2CCN(CCCNC(=O)C(C)(C)c3ccc(Cl)cc3)CC2)ccc1F` [Example 49], the Ki stood at 14.8 nM.

On to `CC(C)C(=O)Nc1cccc(C2CCN(CCCNC(=O)C(c3ccc(Cl)cc3)c3ccc(Cl)cc3)CC2)n1` [Example 50], for which the Ki came out at 1.9 nM.

With `CC(C)C(=O)Nc1cc(C2CCN(CCCNC(=O)C(C)(c3ccccc3)c3ccccc3)CC2)ccc1F` [Example 51], the Ki was found to be 11.8 nM.

Regarding `Cc1ccc(NC(=O)C(C)C)cc1C1CCN(CCCNC(=O)C(c2ccc(Cl)cc2)c2ccc(Cl)cc2)CC1` [Example 52], the Ki was found to be 4.1 nM.

`CCCC(=O)Nc1cccc(C2CCN(CCCNC(=O)C(c3ccc(Cl)cc3)c3ccc(Cl)cc3)CC2)c1` [Example 53, N-{3-[1-(3-{[2,2-BIS(4-CHLOROPHENYL)ACETYL]AMINO}PROPYL)-4-PIPERIDINYL] PHENYL}BUTANAMIDE]: the Ki was found to be 1.1 nM.

As to `CC(C)C(=O)Nc1ccc(F)c(C2CCN(CCCNC(=O)C(c3ccc(Cl)cc3)c3ccc(Cl)cc3)CC2)c1` [Example 54], the Ki turned out to be 2.2 nM.

Turning to `CC(=O)Nc1cccc(C2CCN(CCCNC(=O)C(c3ccc(Cl)cc3)c3ccc(Cl)cc3)CC2)c1` [Example 55], the Ki came out at 0.3 nM.

On to `CC(C)C(=O)Nc1cc(C2CCN(CCCNC(=O)C(c3ccccc3)c3ccccc3)CC2)ccc1F` [Example 56], for which the Ki is 4.5 nM.

In the case of `CCC(=O)Nc1cccc(C2CCN(CCCNC(=O)C(c3ccc(Cl)cc3)c3ccc(Cl)cc3)CC2)c1` [Example 57, N-{3-[1-(3-{[2,2-BIS(4-CHLOROPHENYL)ACETYL]AMINO}PROPYL)-4-PIPERIDINYL] PHENYL}PROPANAMIDE], the Ki was determined as 0.5 nM.

Take `CCC(=O)Nc1cccc(C2CCN(CCCNC(=O)C3(c4ccc(Cl)cc4)CCC3)CC2)c1` [Example 58, 1-(4-CHLOROPHENYL)-N-(3-{4-[3-PROPIONYLAMINO)PHENYL]-1-PIPERIDINYL} PROPYL)CYCLOBUTANECARBOXAMIDE]: the Ki is 45.9 nM.

Turning to `CC(C)C(=O)Nc1cccc(C2CCN(CCCNC(=O)C(c3ccccc3)(c3ccccc3)c3ccccc3)CC2)c1` [Example 59], the Ki amounted to 4.3 nM.

In the case of `CCC(=O)Nc1cccc(C2CCN(CCCNC(=O)C3(c4ccc(F)cc4)CCCC3)CC2)c1` [Example 60], the Ki came to 41.3 nM.

For `CCC(=O)Nc1cccc(C2CCN(CCCNC(=O)C3(c4ccc(F)cc4)CCCCC3)CC2)c1` [Example 61, 1-(4-FLUOROPHENYL)-N-(3-{4-[3-(PROPIONYLAMINO)PHENYL]-1-PIPERIDINYL} PROPYL)CYCLOHEXANECARBOXAMIDE], the Ki came to 63.3 nM.

On to `CCC(=O)Nc1cccc(C2CCN(CCCNC(=O)C3(c4ccc(Cl)cc4)CCCC3)CC2)c1` [Example 62, 1-(4-CHLOROPHENYL)-N-(3-{4-[3-PROPIONYLAMINO)PHENYL]-1-PIPERIDINYL} PROPYL)CYCLOPENTANECARBOXAMIDE], for which the Ki was 31.7 nM.

As to `CCC(=O)Nc1cccc(C2CCN(CCCNC(=O)C3(c4ccc(Cl)cc4)CC3)CC2)c1` [Example 63, 1-(4-CHLOROPHENYL-N-(3-{4-[3-(PROPIONYLAMINO)PHENYL]-1-PIPERIDINYL} PROPYL)CYCLOPROPANECARBOXAMIDE], the Ki turned out to be 150 nM.

Turning to `CCC(=O)Nc1cccc(C2CCN(CCCNC(=O)C(C)c3ccc(F)cc3)CC2)c1` (stereo not drawn) [Example 64, 2-(4-FLUOROPHENYL)-N-(3-{4-[3-PROPIONYLAMINO)PHENYL]-1-PIPERIDINYL} PROPYL) PROPANAMIDE], the Ki is 70.7 nM.

For the compound `CCCC(=O)Nc1cc(C2CCN(CCCNC(=O)C(c3ccccc3)c3ccccc3)CC2)ccc1F` [Example 65], the Ki amounted to 4.9 nM.

In the case of `CC(C)C(=O)Nc1cccc(C2CCN(CCCNC(=O)C3(c4ccc(F)cc4)CCCC3)CC2)n1` [Example 66, 1-(4-FLUOROPHENYL)-N-(3-{4-[6-(ISOBUTYRYLAMINO)-2-pyridinyl]-piperidinyl}propyl) cyclopentanecarboxamide], the Ki stood at 24.4 nM.

In the case of `CC(C)C(=O)Nc1cccc(C2CCN(CCCNC(=O)C3(c4ccc(Cl)cc4)CCCCC3)CC2)n1` [Example 67, 1-(4-CHLOROPHENYL)-N-(3-{4-[6-(ISOBUTYRYLAMINO)-2-PYRIDINYL]-1-PIPERIDINYL} PROPYL)CYCLOHEXANECARBOXAMIDE], the Ki stood at 9.9 nM.

On to `CC(C)C(=O)Nc1cccc(C2CCN(CCCNC(=O)C3(c4ccc(F)cc4)CCCCC3)CC2)n1` [Example 68, 1-(4-FLUOROPHENYL)-N-(3-{4-[6-(ISOBUTYRYLAMINO)-2-PYRIDINYL]-1-PIPERIDINYL} PROPYL)CYCLOHEXANECARBOXAMIDE], for which the Ki worked out at 16.9 nM.

`CCCC(=O)Nc1cccc(C2CCN(CCCNC(=O)C3(c4ccc(Cl)cc4)CC3)CC2)c1` [Example 69, N-(3-{4-[3-(butyrylamino)phenyl]-1-piperidinyl}propyl)-1-(4-chlorophenyl)cyclopropane carboxamide]: the Ki was determined as 39.9 nM.

On to `CC(=O)Nc1cccc(C2CCN(CCCNC(=O)C3(c4ccc(F)cc4)CCCCC3)CC2)c1` [Example 70, N-(3-{4-[3-(ACETYLAMINO)PHENYL]-1-PIPERIDINYL}PROPYL)-1-(4-FLUORO PHENYL)CYCLOHEXANECARBOXAMIDE], for which the Ki was 26.7 nM.

With `CC(=O)Nc1cccc(C2CCN(CCCNC(=O)C3(c4ccc(Cl)cc4)CC3)CC2)c1` [Example 71, N-(3-{4-[3-(ACETYLAMINO)PHENYL]-1-PIPERIDINYL}PROPYL)-1-(4-CHLORO PHENYL) CYCLOPROPANECARBOXAMIDE], the inhibitory constant (Ki) stood at 54.5 nM.
